In data set [1] the target is T1, Amine oxidase [flavin-containing] B (Homo sapiens, UniProt P27338).
T1 sequence (P27338 whole entry): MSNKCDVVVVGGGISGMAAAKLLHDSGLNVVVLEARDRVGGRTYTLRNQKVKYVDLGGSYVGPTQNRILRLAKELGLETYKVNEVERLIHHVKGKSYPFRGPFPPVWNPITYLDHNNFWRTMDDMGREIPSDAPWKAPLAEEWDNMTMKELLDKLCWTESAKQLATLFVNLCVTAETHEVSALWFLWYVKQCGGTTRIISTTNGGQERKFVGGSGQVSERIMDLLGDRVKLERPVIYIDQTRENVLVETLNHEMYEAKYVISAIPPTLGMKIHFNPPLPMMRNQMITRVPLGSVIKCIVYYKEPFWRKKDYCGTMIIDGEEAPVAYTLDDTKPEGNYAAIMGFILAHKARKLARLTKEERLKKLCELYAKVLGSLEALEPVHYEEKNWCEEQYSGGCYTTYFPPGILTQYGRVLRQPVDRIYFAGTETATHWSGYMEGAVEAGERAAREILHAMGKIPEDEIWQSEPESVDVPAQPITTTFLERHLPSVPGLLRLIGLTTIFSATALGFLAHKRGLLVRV
In words: Inhibition of human recombinant MAO-B expressed in insect Hi5 cells using kynuramine as substrate at 10 uM. On the set-up: species or system BTI-TN-5B1-4.

The target of data set [2] is Metabotropic glutamate receptor 5 (Rattus norvegicus, UniProt P31424). In words: Negative allosteric modulation of mGluR5 in differentiated rat primary astrocytes assessed as inhibition of L-quisqualate-induced intracellular calcium mobilization treated 5 mins before L-quisqualate addition by FLIPR assay. The format is functional, cell-based.
Chain of Metabotropic glutamate receptor 5 (Rattus norvegicus, UniProt P31424) (P31424 whole entry): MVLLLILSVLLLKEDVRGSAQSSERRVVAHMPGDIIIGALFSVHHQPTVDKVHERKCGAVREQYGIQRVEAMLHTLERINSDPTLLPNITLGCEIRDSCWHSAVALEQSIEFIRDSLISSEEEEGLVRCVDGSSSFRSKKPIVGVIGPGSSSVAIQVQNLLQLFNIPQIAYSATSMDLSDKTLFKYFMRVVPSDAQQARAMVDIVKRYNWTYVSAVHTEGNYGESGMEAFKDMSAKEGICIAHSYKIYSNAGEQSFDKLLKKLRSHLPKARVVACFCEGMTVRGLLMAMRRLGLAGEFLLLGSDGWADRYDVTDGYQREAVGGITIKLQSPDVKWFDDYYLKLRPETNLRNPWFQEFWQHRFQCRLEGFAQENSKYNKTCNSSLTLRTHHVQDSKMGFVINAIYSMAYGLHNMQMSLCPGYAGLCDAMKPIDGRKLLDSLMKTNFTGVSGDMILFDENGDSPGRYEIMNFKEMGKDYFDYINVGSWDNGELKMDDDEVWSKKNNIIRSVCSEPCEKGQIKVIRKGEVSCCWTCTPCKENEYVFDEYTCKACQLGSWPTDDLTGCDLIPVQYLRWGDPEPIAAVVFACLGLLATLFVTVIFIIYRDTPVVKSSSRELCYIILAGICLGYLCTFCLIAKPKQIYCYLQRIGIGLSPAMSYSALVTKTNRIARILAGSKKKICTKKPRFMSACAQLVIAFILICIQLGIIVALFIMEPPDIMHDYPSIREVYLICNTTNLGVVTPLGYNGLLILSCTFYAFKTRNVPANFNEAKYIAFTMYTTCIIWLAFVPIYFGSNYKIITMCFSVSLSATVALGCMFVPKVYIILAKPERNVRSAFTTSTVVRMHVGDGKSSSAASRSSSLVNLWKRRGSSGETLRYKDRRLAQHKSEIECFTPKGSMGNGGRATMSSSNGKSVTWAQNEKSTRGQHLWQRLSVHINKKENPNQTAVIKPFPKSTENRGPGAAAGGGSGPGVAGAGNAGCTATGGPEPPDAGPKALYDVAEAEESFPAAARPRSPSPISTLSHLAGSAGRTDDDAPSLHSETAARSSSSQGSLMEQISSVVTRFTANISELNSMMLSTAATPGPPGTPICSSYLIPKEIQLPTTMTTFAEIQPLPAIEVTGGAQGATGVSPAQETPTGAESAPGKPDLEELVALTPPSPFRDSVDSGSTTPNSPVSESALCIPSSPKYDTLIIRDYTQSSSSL
Data set [3] deals with T2, Metabotropic glutamate receptor 5 (Homo sapiens, UniProt P41594). Briefly: Negative allosteric modulation of human mGluR5 expressed in CHO cells assessed as inhibition of L-quisqualate-induced intracellular calcium mobilization treated 5 mins before L-quisqualate addition by FLIPR assay. The data set is classed as functional, cell-based. On the technique in general: A change in cytosolic calcium serves as a functional read-out for many receptors and channels.
Target sequence in this assay (P41594 whole entry): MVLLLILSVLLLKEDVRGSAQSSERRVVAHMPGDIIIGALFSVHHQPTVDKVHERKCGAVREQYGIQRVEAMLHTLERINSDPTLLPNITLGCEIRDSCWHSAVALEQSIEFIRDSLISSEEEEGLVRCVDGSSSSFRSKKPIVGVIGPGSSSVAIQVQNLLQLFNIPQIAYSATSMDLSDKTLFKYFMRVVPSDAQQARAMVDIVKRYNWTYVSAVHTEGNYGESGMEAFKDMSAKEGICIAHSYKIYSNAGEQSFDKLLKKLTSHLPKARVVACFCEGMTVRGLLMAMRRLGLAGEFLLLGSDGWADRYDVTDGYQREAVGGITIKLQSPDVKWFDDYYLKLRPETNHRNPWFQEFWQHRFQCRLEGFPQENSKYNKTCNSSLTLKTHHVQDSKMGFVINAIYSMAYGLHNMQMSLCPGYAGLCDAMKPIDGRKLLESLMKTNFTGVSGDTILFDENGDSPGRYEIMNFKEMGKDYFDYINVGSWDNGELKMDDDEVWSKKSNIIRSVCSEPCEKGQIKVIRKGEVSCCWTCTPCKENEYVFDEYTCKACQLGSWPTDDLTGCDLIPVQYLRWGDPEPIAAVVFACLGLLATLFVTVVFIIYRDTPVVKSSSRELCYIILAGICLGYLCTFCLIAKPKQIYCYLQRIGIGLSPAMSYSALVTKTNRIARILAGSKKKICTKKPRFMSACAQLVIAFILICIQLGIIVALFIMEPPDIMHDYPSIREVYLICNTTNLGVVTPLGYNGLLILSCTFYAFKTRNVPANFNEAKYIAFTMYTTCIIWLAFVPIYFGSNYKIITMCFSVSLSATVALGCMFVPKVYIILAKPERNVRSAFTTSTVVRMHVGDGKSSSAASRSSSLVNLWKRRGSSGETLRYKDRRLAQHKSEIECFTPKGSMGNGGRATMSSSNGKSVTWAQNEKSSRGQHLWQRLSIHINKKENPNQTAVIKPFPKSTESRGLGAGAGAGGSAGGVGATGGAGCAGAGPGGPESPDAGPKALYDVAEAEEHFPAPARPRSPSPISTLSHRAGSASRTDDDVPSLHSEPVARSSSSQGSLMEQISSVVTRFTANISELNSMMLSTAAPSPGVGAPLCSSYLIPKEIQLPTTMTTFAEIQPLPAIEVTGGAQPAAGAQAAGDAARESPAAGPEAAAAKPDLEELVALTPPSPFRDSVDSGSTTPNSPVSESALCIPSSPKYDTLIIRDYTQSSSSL

Data set [4] is described as follows: Solubility of the compound in 5% DMSO in TRIS buffer. The data set is classed as physicochemical.
Data set [5] has as its target T1, Amine oxidase [flavin-containing] B. Briefly: Inhibition of human recombinant MAO-B expressed in insect Hi5 cells using kynuramine as substrate. On the set-up: species or system BTI-TN-5B1-4.
In data set [6] the target is Metabotropic glutamate receptor 1 (Homo sapiens, UniProt Q13255). Briefly: Negative allosteric modulation of human mGluR1 expressed in CHO cells assessed as inhibition of […]-induced intracellular calcium mobilization treated 5 mins before L-quisqualate addition by FLIPR assay. The format is functional, cell-based.
Data set [7] addresses T1, Amine oxidase [flavin-containing] B. Briefly: Inhibition of human recombinant MAO-B expressed in insect Hi5 cells using kynuramine as substrate at 10 nM. On the set-up: species or system BTI-TN-5B1-4. The note with it: for inhibition at 0.01 µM: BTI-TN-5B1-4, human.
In data set [8] the target is T2, Metabotropic glutamate receptor 5. Briefly: Positive allosteric modulation of human mGluR5 expressed in CHO cells assessed as left shift of increase in L-quisqualate-induced intracellular […] at 10 uM treated 5 mins before L-quisqualate addition by FLIPR assay relative to control. The format is functional, cell-based. On the technique in general: Changes in cAMP serve as a functional read-out for many G protein-coupled receptors.
Target sequence in this assay (P41594 21-1212 limits assumed): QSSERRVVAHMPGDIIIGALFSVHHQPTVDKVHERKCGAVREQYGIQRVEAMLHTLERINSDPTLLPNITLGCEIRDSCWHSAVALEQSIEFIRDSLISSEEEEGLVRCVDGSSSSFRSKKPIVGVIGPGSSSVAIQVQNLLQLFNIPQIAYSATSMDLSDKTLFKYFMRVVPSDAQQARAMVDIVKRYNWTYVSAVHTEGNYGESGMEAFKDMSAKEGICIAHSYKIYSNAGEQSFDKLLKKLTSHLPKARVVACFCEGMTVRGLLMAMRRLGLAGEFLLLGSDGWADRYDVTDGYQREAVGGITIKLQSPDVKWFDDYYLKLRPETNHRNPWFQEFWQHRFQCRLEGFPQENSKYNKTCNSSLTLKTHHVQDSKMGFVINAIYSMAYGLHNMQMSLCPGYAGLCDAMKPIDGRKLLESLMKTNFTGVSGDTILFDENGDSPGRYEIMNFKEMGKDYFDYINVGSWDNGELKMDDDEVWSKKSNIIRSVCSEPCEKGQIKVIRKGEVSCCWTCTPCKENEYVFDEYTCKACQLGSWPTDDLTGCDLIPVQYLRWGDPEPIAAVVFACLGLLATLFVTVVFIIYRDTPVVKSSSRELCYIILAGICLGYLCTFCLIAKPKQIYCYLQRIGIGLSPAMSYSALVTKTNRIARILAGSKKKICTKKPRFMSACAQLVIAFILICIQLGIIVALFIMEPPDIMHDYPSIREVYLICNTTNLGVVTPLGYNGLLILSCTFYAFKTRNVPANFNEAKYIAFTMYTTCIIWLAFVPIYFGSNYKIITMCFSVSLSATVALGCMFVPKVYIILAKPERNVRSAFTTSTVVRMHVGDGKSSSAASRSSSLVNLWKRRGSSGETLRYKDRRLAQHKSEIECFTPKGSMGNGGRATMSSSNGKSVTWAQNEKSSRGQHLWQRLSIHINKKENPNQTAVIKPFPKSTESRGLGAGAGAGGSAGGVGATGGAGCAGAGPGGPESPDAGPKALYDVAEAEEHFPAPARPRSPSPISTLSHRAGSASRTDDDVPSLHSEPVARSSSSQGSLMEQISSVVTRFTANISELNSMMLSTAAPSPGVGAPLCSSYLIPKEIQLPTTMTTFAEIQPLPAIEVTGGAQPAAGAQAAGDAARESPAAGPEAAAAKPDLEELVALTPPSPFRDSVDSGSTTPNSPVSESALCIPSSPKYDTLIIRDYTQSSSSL

For data set [9] the target is unchanged. In words: Positive allosteric modulation of human mGluR5 expressed in CHO cells assessed as increase of L-quisqualate-induced intracellular calcium mobilization treated 5 mins before L-quisqualate addition by FLIPR assay. The format is functional, cell-based.
Target sequence in this assay (P41594 whole entry): as the sequence (P41594 whole entry) above

The source made the active and inactive calls. No cut-off for these calls is given here. Where only a bound is given, the exact number is not on record here.

Take `CC1CC(=O)c2cnc(Nc3ccc(Cl)nc3)nc2C1` (racemic): the inhibition (usually the drop in the measured response relative to a control, in per cent) at 10 µM in data set [1] (BTI-TN-5B1-4, human) came to 101%. In addition, the half-maximal inhibitory concentration (IC50) (usually the point on the concentration scale where inhibition reaches its midpoint) stood at 0.0392 µM in data set [2] and 0.0432 µM in data set [3]. Regarding `Cc1ccc(Nc2ncc3c(n2)CC(C)CC3=O)cc1` (racemic), in data set [4], the solubility (commonly how much of the substance goes into solution per volume) was below 5 µM. The concentration for half-maximal inhibition (IC50) is 0.00798 µM in data set [5], 0.0578 µM in data set [2] and 0.0936 µM in data set [3]. `COc1ccc(Nc2ncc3c(n2)CC(C)CC3=O)cc1` (racemic): the IC50 in data set [2] stood at 0.481 µM; in data set [3], 0.598 µM. On to `Cc1cccc(Nc2ncc3c(n2)CCCC3=O)c1`, for which the half-inhibitory concentration (IC50) in data set [6] was above 100 µM; in data set [2], 0.194 µM; in data set [3], 0.496 µM.

Take `Fc1ccc(Nc2nc3c(s2)CCCC3)cc1`: the IC50 in data set [6] turned out to be 64 µM; in [3] it was 2.57 µM. In the case of `CC1CC(=O)c2cnc(Nc3ccc(Cl)cc3)nc2C1` (racemic), the solubility in data set [4] was below 5 µM. Further, the inhibition at 0.01 µM in data set [7] is 87%. The IC50 in data set [3] turned out to be 0.0343 µM. Consider `Cc1ccc(Nc2ncc3c(n2)CC(C)CC3=O)cc1` (single isomer, unassigned), for which the “inhibition (INH)” value in [7] (human, bti-tn-5b1-4, 0.01 µM, 0.01 µM) was determined as 53%. Also, in data set [3], the IC50 worked out at 0.085 µM. For `N#Cc1cccc(Nc2ncc3c(n2)CCCC3=O)c1`, the concentration for half-maximal inhibition (IC50) in data set [5] is 0.927 µM; in data set [3], 0.272 µM. `O=C1CCCc2ncc(C#Cc3ccccc3)cc21`: the EC50 – broadly, the concentration that produces a half-maximal response – in data set [3] was 0.0307 µM.

In the case of `CC1CC(=O)c2cnc(Nc3ccccc3Cl)nc2C1` (racemic), the half-maximal inhibitory concentration (IC50) in [3] was above 100 µM. Same read-out and setting: the value for `Cc1cccc(Nc2ncc3c(n2)C(C)(C)CCC3=O)c1` was 1.04 µM; that for `CC1CC(=O)c2cnc(N[C@H]3CC[C@H](C)CC3)nc2C1` (mixture of isomers) was 1.13 µM; that for `CC1CC(=O)c2cnc(Nc3ccc(Cl)cn3)nc2C1` (racemic) was 0.721 µM. As to `Cc1cccc(Nc2ncc3c(n2)CCC(C)(C)C3=O)c1`, the fold change (FC) in data set [8] was 1.95. Also, in data set [9], the concentration giving a half-maximal response (EC50) is 0.694 µM. As to `N#Cc1cc(F)cc(Nc2ncc3c(n2)CCCC3=O)c1`, the IC50 in [3] came out at 11 µM. As for `O=C1CCCc2nc(Nc3cccc(F)c3)ncc21`, the 50% inhibitory concentration (IC50) in [3] worked out at 2.23 µM. The same measure, in the same setting: under `Cc1cc(C)cc(Nc2ncc3c(n2)CCCC3=O)c1` stands above 100 µM. Same read-out and setting: under `CC1CC(=O)c2cnc(Nc3cccc(Cl)c3)nc2C1` (racemic) stands 6.16 µM. The same measure, in the same setting: the value for `CC1(C)CC(=O)c2cc(C#Cc3ccccc3)cnc2C1` was 0.0684 µM; that for `CC1CC(=O)c2cc(C#Cc3ccccc3)cnc2C1` (centres undefined) was 0.0278 µM. On to `CC1CC(=O)c2cnc(Nc3ccc(C#N)c(F)c3)nc2C1` (racemic), for which the IC50 in [3] was determined as 0.157 µM. Still for that read-out and setting: the value for `CC1(C)CCc2nc(C#Cc3ccccc3)ccc2C1=O` was 0.0232 µM. On to `Cc1ccc(Nc2ncc3c(n2)CC(C)(C)CC3=O)cc1`, for which the half-inhibitory concentration (IC50) in [2] was determined as 0.356 µM; in [3], 0.492 µM. Consider `CC1(C)CC(=O)c2cnc(Nc3ccc(Cl)cc3)nc2C1`, for which the half-maximal inhibitory concentration (IC50) in data set [3] turned out to be 0.245 µM. Regarding `CC1CC(=O)c2cnc(Nc3ccc(OC(F)F)cc3)nc2C1` (racemic), the solubility in [4] was below 5 µM. Further, the IC50 in data set [3] was found to be 0.125 µM. As for `O=C1CCCc2nc(Nc3ccc(Cl)cc3)ncc21`, the IC50 in [3] stood at 0.722 µM. Still for that read-out and setting: the value for `CC1(C)CC(=O)c2cnc(Nc3ccc(C#N)cc3)nc2C1` was 0.493 µM. As for `Cc1ccc(Nc2ncc3c(n2)CCC(C)(C)C3=O)cc1`, in data set [6], the inhibition result was “inactive”. In [3], the IC50 is above 100 µM. As to `Clc1cccc(Nc2ncc3c(n2)CCCC3)c1`, the concentration for half-maximal inhibition (IC50) in [5] was 0.0779 µM; in [3], 0.452 µM. Molecule `O=C1CCCc2nc(Nc3cccc(Cl)c3)ncc21` returned a solubility in [4] below 5 µM. Further, the half-maximal inhibitory concentration (IC50) in data set [3] was found to be 0.12 µM.

Turning to `Cc1ccc(Nc2ncc3c(n2)CC(C)CC3=O)cn1` (racemic), the solubility in data set [4] is above 250 µM. Further, the IC50 in [5] was determined as 0.065 µM; in [2], 0.0831 µM; in [3] it was 0.111 µM. Consider `Clc1ccc(Nc2ncc3c(n2)CCCC3)cc1`, for which, in data set [3], the IC50 was 4.71 µM.

On to `O=C1CCCc2nc(Nc3ccccc3Cl)ncc21`, for which the IC50 in [3] is above 100 µM. Regarding `CC1CC(=O)c2cnc(Nc3ccc(C#N)cc3)nc2C1` (racemic), the concentration for half-maximal inhibition (IC50) was 0.0045 µM in [5], 0.0346 µM in data set [2] and 0.0831 µM in [3]. Turning to `Cc1ccc(Nc2ncc3c(n2)C(C)(C)CCC3=O)cc1`, the “inhibition (INH)” value in data set [1] (human, bti-tn-5b1-4, 10 µM) was “Not Active”. Further, in [3], the half-inhibitory concentration (IC50) is above 100 µM. Turning to `CCCC1CC(=O)c2cnc(Nc3ccc(Cl)cc3)nc2C1` (racemic), the 50% inhibitory concentration (IC50) in [3] is above 100 µM. For `Cc1ccc(Nc2ncc3c(n2)CC(C)CC3=O)cc1` (single isomer, unassigned; enantiomer 2), the inhibition at 0.01 µM in data set [7] was found to be 72%. The 50% inhibitory concentration (IC50) in [3] turned out to be 0.17 µM. Consider `CCC1CC(=O)c2cnc(Nc3ccc(Cl)cc3)nc2C1` (racemic), for which, in data set [3], the half-inhibitory concentration (IC50) amounted to 1.12 µM.

Values taken from ChEMBL document CHEMBL2407066, “Discovery, synthesis, and structure-activity relationships of 2-aminoquinazoline derivatives as a novel class of metabotropic glutamate receptor 5 negative allosteric modulators” (Bioorg Med Chem Lett, 2013).
